Values of other authors, collected in patent US20100215746A1, “PREVENTION OF CISPLATIN INDUCED DEAFNESS” (THE REGENTS OF THE UNIVERSITY OF MICHIGAN, priority 2002, published 2010).

Columns and labels:
[1] = tested on: hearing; conditions: human, in vivo
[2] = tested on: neuropathic and ototoxic effects of cisplatin; conditions: co-administration with cisplatin

## N.N.[Cl][Pt][Cl] [cisplatin]
[1]
  reported incidence of cisplatin-induced hearing loss: 9-90%

## NCCCNCCSP(=O)(O)O [amifostine]
[2]
  effectiveness in ameliorating neuropathic and ototoxic effects of cisplatin: does not appear to be effective
